Here are results for 21 compounds from patent publication US20070149481A1, “N,n-bridged, nitrogen-substituted carbacyclic indolocarbazoles as protein kinase inhibitors” (priority 2002, published 2007).

What all share (type): biochemical
Common to all, as to conditions: 10 μM compound

The target in one experiment is His tagged ERK2 (Homo sapiens, UniProt P28482). The experiment in a line: Extracellular signal Regulated Kinase 2 inhibition assay (ERK2), radioactive filtermat format. As for the experimental part: (§1) The ERK2 kinase activity assay utilizes a radioactivity-based format in a 96-well PCR plate with radioactive readout. The ERK2 activity was assayed in a 25 μL assay mixture containing 25 mM HEPES (pH 7.0), 250 μM ATP, 1 mM MgCl2, 1 mM DTT, 2% DMSO, 150 ng/mL Myelin Basic Protein (MBP, Sigma M-1891), and 13.6 ng/mL His tagged ERK2 (specific activity=38.1 nmol/min*mg). Compounds were screened for inhibition of the ERK2 kinase activity at a concentration of 10 μM. The kinase reaction was allowed to proceed at 37° C. for 30 minutes, then reaction was stopped by the addition of 5 μl of 0.5M EDTA (pH 8). 15 μL of each solution were then spotted onto the corresponding square of a filtermat (8×12 glassfibre mat 90×120 mm, PE-Wallac 1450-421). The filtermat was allowed to dry and washed once with 10% TCA, 2% PPA, 500 mM NaCl each for 30 minutes at rt. Two further washings in 10% TCA and 2% PPA for 30 minutes were performed, then a final 30 minute wash in 99% EtOH at rt was done and the filtermat was air dried. The dry filtermat was then placed in a sample bag with a Meltilex sheet (Melt-on scintillator sheets 73×109 mm, PE-Wallac 1450-441 for filtermat A) over the filtermat. The bag was trimmed to fit into the microplate heatsealer (PE-Wallac 1495-021). The heatsealer is used to melt the Meltilex on the filtermat. The bag containing the filtermat and the melted Meltilex was then placed into a filter cassette and counted using the Microbeta Jet Scintillation and Luminescence Counter PE-Wallac 1450.
Chain of His tagged ERK2 (P28482 whole entry): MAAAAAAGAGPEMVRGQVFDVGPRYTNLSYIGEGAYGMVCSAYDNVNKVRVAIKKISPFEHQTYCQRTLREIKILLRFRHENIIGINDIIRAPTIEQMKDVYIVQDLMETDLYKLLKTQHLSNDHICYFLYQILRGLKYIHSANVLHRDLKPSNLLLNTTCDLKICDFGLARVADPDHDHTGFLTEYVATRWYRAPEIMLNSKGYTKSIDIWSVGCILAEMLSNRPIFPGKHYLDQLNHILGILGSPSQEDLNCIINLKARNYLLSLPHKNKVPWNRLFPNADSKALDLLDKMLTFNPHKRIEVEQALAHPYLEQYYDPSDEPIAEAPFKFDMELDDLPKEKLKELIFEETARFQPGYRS

Experiment [1] addresses T1, PKA (catalytic subunit, bovine heart) (Bos taurus, UniProt P00517).
T1 construct: PKA (catalytic subunit, bovine heart, Calbiochem 539486); purchased Calbiochem 539486; host or cells: bovine heart (tissue-derived)
The experiment can be described thus: Protein Kinase A inhibition assay (PKA). How it is done:
as §1
The PKA kinase activity assay utilizes a radioactivity-based format in a 96-well PCR plate with radioactive readout. The PKA activity was assayed in a 25 μL assay mixture containing 25 mM HEPES (pH 7.0), 250 μM ATP, 10 mM MgCl2, 1 mM DTT, 1 mM EDTA (pH 8). 2% DMSO. 250 ng/mL Histone H2B (Roche 223 514), and 2 ng/mL PKA (catalytic subunit, bovine heart, Calbiochem 539486, specific activity=1170 pmol/min*μg). Compounds were screened for inhibition of the PKA kinase activity at a concentration of 10 μM. The kinase reaction was allowed to proceed at 37° C. for 30 minutes, then the reaction was stopped by addition of 5 μL of 0.5M EDTA (pH 8). The remainder of the protocol is identical to the one reported for ERK2.

The subject of the next experiment is PKC (rat brain). The experiment in a line: Protein Kinase C inhibition assay (PKC). As for the experimental part: as §1
The PKC kinase activity assay utilizes a radioactivity-based format in a 96-well PCR plate with radioactive readout. The PKC activity was assayed in a 25 μL assay mixture containing 25 mM HEPES (pH 7.0), 250 μM ATP, 10 mM MgCl2, 1 mM DTT, 1 mM EDTA (pH 8), 2 mM CaCl2, 2% DMSO, 250 ng/mL Histone H1 (Roche 1 004 875), and 165 ng/mL PKC (rat brain, Calbiochem 539494, specific activity=1600 nmol/min*mg). Compounds were screened for inhibition of the PKC kinase activity at a concentration of 10 μM. The kinase reaction was allowed to proceed at 37° C. for 30 minutes, then the reaction was stopped by addition of 5 μL of 0.5M EDTA (pH 8). The remainder of the protocol is identical to the one reported for ERK2.

Another experiment addresses T2, GSK3β (Homo sapiens, UniProt P49841).
T2 construct: purchased Upstate Discovery
The experiment in a line: Glycogen Synthase Kinase 3β inhibition assay (GSK3β). How it is done:
The GSK3β kinase activity assay utilizes a radioactivity-based format in a 96-well PCR plate with radioactive readout. The GSK3 β activity was assayed in a 25 μL assay mixture containing 8 mM HEPES (pH 7.0), 250 μM ATP, 0.2 mM EDTA (pH 8), 2% DMSO, 250 ng/mL Myelin Basic Protein (MBP, Sigma M-1891), and 12 ng/mL GSK3β (Upstate Discovery, specific activity=607 nmol/min*GS2 peptide, concentration of 6.05 mg/mL). Compounds were screened for inhibition of the GSK3β kinase activity at a concentration of 10 μM. The kinase reaction was allowed to proceed at 37° C. for 30 minutes, then the reaction was stopped by addition of 5 μL of 0.5M EDTA (pH 8).

T2 sequence (P49841 whole entry, species assumed): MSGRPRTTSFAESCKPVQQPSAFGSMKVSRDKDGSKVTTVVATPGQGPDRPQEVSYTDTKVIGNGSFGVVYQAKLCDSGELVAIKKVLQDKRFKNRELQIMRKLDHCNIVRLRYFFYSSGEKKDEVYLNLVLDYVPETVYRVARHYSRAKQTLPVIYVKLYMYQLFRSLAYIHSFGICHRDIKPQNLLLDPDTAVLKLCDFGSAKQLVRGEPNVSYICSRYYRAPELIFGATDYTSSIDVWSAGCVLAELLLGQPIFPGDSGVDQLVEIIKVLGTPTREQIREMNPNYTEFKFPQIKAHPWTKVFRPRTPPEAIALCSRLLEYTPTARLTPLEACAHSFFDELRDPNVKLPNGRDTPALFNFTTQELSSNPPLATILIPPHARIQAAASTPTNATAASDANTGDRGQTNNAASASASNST

Take `COc1ccc(CN2C(=O)c3c(c4c5ccccc5n5c4c4c3c3ccccc3n4C3CC5[C@@H](N4CCOCC4)C3)C2=O)cc1` (stereo partly drawn) [Compound 26]: the inhibition (usually the share of the control response that was lost under treatment) at 10 µM at His tagged ERK2 was 67.6%; in experiment [1] it was less than 10%; against GSK3β, less than 10%. The “% Inhibition PKC” value in the experiment on PKC (rat brain) worked out at 10.18%.
Take `COc1ccc(CN2C(=O)c3c(c4c5ccccc5n5c4c4c3c3ccccc3n4C3CC(N4CCCCC4)C5C3)C2=O)cc1` (stereo not drawn) [Compound 24]: the “% Inhibition ERK2” value at His tagged ERK2 worked out at 28.09%. In addition, the “% Inhibition PKA” value in experiment [1] is reported as 10.67%. Further, the “% Inhibition PKC” value in the experiment on PKC (rat brain) is 28.18%. The “% Inhibition GSK3β” value on GSK3β is reported as “NA (NA = <10% inhibition)”.
Taken in the same sequence, the figures for `CCNC(=O)C1(N)CC2CC1n1c3ccccc3c3c4c(c5c6ccccc6n2c5c31)C(=O)NC4=O` (stereo not drawn) [Compound 41] were 72.93%, 86.43%, 83.88% and 95.80%.
On the same counts, the results for `O=C1NC(=O)c2c1c1c3ccccc3n3c1c1c2c2ccccc2n1C1CC3CC1N1CCCCC1` (stereo not drawn) [Compound 29] are 56.44%, 18.38%, 46.63% and 54.14%.
For the compound `N[C@@H]1C2CC([C@H]1O)n1c3ccccc3c3c4c(c5c6ccccc6n2c5c31)C(=O)NC4=O` (mixture of isomers) [Compound 16], the inhibition at 10 µM at His tagged ERK2 is 98.2%; in experiment [1], 84.8%; against GSK3β, 98.5%. Moreover, the “% Inhibition PKC” value in the experiment on PKC (rat brain) was determined as 93.34%.
Taken in the same sequence, the figures for `COC(=O)[C@]1(N)CC2CC1n1c3ccccc3c3c4c(c5c6ccccc6n2c5c31)C(=O)NC4=O` (stereo partly drawn) [Compound 8] were 50.2%, 70.8%, 96.9% and 59.42%.
For the compound `O=C1NC(=O)c2c1c1c3ccccc3n3c1c1c2c2ccccc2n1C1CC3CC1NCc1ccccc1` (stereo not drawn) [Compound 23], the “% Inhibition ERK2” value on His tagged ERK2 came to 53.66%. Further, in experiment [1], the “% Inhibition PKA” value is 27.53%. In addition, the “% Inhibition PKC” value with PKC (rat brain) is given as 70.41%. The “% Inhibition GSK3β” value at GSK3β worked out at 72.56%.
As to `CCCCNC1CC2CC1n1c3ccccc3c3c4c(c5c6ccccc6n2c5c31)C(=O)N(Cc1ccc(OC)cc1)C4=O` (stereo not drawn) [Compound 30], the “% Inhibition ERK2” value at His tagged ERK2 is reported as 44.61%. For the same compound, the “% Inhibition PKA” value in experiment [1] is recorded as “NA (NA = <10% inhibition)”. The “% Inhibition PKC” value with PKC (rat brain) turned out to be 29.04%. Also, on GSK3β, the “% Inhibition GSK3β” value was “NA (NA = <10% inhibition)”.
Take `COC(=O)c1cn([C@@H]2C3CC([C@H]2O)n2c4ccccc4c4c5c(c6c7ccccc7n3c6c42)C(=O)NC5=O)nn1` (mixture of isomers) [Compound 17]: the inhibition at 10 µM at His tagged ERK2 is less than 10%; in experiment [1], less than 10%; at GSK3β, 12.1%. Also, in the experiment on PKC (rat brain), the “% Inhibition PKC” value was found to be 96.75%.
`O=C(O)c1cn([C@@H]2C3CC([C@H]2O)n2c4ccccc4c4c5c(c6c7ccccc7n3c6c42)C(=O)NC5=O)nn1` (mixture of isomers) [Compound 18]: the inhibition at 10 µM is less than 10% on His tagged ERK2, 11.5% in experiment [1] and 75.9% against GSK3β. Moreover, in the experiment on PKC (rat brain), the “% Inhibition PKC” value is listed as 21.55%.
For the compound `N#CC1(NC(=O)C(F)(F)F)CC2CC1n1c3ccccc3c3c4c(c5c6ccccc6n2c5c31)C(=O)NC4=O` (stereo not drawn) [Compound 32], the “% Inhibition ERK2” value on His tagged ERK2 came to 44.03%. Moreover, the “% Inhibition PKA” value in experiment [1] is 23.81%. Besides, the “% Inhibition PKC” value in the experiment on PKC (rat brain) was 49.33%. Moreover, the “% Inhibition GSK3β” value on GSK3β was found to be 72.20%.
On to `CN[C@H]1CC2CC1n1c3ccccc3c3c4c(c5c6ccccc6n2c5c31)C(=O)NC4=O` (mixture of isomers) [Compound 2], for which the values for the inhibition at 10 µM (on His tagged ERK2; in experiment [1]; against GSK3β) were 65.3%, 68.4% and 78.2%, respectively. In the experiment on PKC (rat brain), the “% Inhibition PKC” value is recorded as 90.78%.
Taken in the same sequence, the figures for `CNC(=O)[C@]1(N)CC2CC1n1c3ccccc3c3c4c(c5c6ccccc6n2c5c31)C(=O)NC4=O` (mixture of isomers) [Compound 10] were 93.5%, 95.3%, 99.2% and 90.75%.
On the same counts, the results for `COc1ccc(CN2C(=O)c3c(c4c5ccccc5n5c4c4c3c3ccccc3n4C3CC5[C@]4(C3)NC(=O)NC4=O)C2=O)cc1` (mixture of isomers) [Compound 13] are 24.7%, 13.2%, less than 10% and 13.67%.
`COc1ccc(CN2C(=O)c3c(c4c5ccccc5n5c4c4c3c3ccccc3n4C3CC5[C@]4(C3)NC(=O)N(C)C4=O)C2=O)cc1` (mixture of isomers) [Compound 14]: the inhibition at 10 µM at His tagged ERK2 was 46.6%; in experiment [1], 16.6%; against GSK3β, less than 10%. Besides, the “% Inhibition PKC” value in the experiment on PKC (rat brain) is 34.01%.
As to `NC1(C(=O)NCCO)CC2CC1n1c3ccccc3c3c4c(c5c6ccccc6n2c5c31)C(=O)N(CCO)C4=O` (stereo not drawn) [Compound 37], the “% Inhibition ERK2” value on His tagged ERK2 is listed as 35.09%. For the same compound, the “% Inhibition PKA” value in experiment [1] amounted to 19.81%. Also, in the experiment on PKC (rat brain), the “% Inhibition PKC” value is 53.92%. Also, the “% Inhibition GSK3β” value at GSK3β was determined as 80.46%.
Turning to `COc1ccc(CN2C(=O)c3c(c4c5ccccc5n5c4c4c3c3ccccc3n4C3CC(N(C)C)C5C3)C2=O)cc1` (stereo not drawn) [Compound 31], the “% Inhibition ERK2” value at His tagged ERK2 was 42.42%. Moreover, the “% Inhibition PKA” value in experiment [1] is given as “NA (NA = <10% inhibition)”. The “% Inhibition PKC” value with PKC (rat brain) is on record as 21.91%. The “% Inhibition GSK3β” value at GSK3β is recorded as “NA (NA = <10% inhibition)”.
Turning to `CNC1(C#N)CC2CC1n1c3ccccc3c3c4c(c5c6ccccc6n2c5c31)C(=O)N(Cc1ccc(OC)cc1)C4=O` (stereo not drawn) [Compound 27], the “% Inhibition ERK2” value at His tagged ERK2 was 63.52%. In addition, the “% Inhibition PKA” value in experiment [1] came to 30.19%. Further, in the experiment with PKC (rat brain), the “% Inhibition PKC” value was determined as 32.18%. Moreover, the “% Inhibition GSK3β” value at GSK3β was found to be 18.28%.
Consider `N#C[C@]1(N)CC2CC1n1c3ccccc3c3c4c(c5c6ccccc6n2c5c31)C(=O)NC4=O` (mixture of isomers) [Compound 4], for which the inhibition at 10 µM on His tagged ERK2 came out at 94.1%; in experiment [1] it was 89.6%; against GSK3β, 98.5%. Besides, in the experiment on PKC (rat brain), the “% Inhibition PKC” value is recorded as 78.10%.
On the same counts, the results for `CCOC(=O)[C@]1(N)CC2CC1n1c3ccccc3c3c4c(c5c6ccccc6n2c5c31)C(=O)NC4=O` (stereo partly drawn) [Compound 6] are 61.3%, 59.4%, 94.2% and 83.97%.
`N[C@@]1(C(=O)O)CC2CC1n1c3ccccc3c3c4c(c5c6ccccc6n2c5c31)C(=O)NC4=O` (stereo partly drawn) [Compound 7]: the inhibition at 10 µM on His tagged ERK2 was determined as 94.7%; in experiment [1] it was 62.5%; at GSK3β it was 99%. The “% Inhibition PKC” value in the experiment with PKC (rat brain) is on record as 85.71%.
